Read-outs that look alike come from different tables or passages of the source.
Experiments:
[1] = system: p-IKKα levels in L363 (NIK translocated multiple myeloma) cells; test: Effect of compounds on p-IKKα levels in L363 cells (AlphaLISA SureFire Ultra); format: cell-based; conditions: Homo sapiens, read-out: Assay 2 IC50
How it was run: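 L363 myeloma cells were BAFF-stimulated (250 ng/ml) overnight in DMEM/0.5% BSA, then exposed 6 h at 37° C to compound (11-point 1:3 series, 0.3% DMSO) with BAFF plus 10 uM MG132. p-IKKα (Ser 176/180) was read by AlphaLISA SureFire Ultra in lysates. IC50 came from sigmoidal fits normalized to stimulated and unstimulated controls.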

[2] = molecular target: Recombinant Human NF-Kappab-Inducing Kinase (NIK/MAP3K14) (Homo sapiens, UniProt Q99558); test: Inhibition of auto-phosphorylation of recombinant human NIK/MAP3K14 (AlphaScreen); format: biochemical
How it was run: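 GST-tagged NIK (1 nM) auto-phosphorylation with 5 µM ATP in Tris pH 7.5/MgCl2 buffer, 0.7% DMSO, 2 h at 25 °C. Phospho-IKK Ser176/180 antibody detected by AlphaScreen beads. Signal normalized to full-enzyme and no-ATP controls; IC50 from sigmoidal fit of % inhibition vs log concentration.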

[3] = L-363, L363 cells, BAFF stimulated, MG132, 6 h, average of values
[4] = NIK/MAP3K14 auto-phosphorylation, 5 microM ATP, 1 nM enzyme, 2 h at 25° C., average of values, read-out: Assay 1 IC50

Chain of Recombinant Human NF-Kappab-Inducing Kinase (NIK/MAP3K14) (Q99558 whole entry): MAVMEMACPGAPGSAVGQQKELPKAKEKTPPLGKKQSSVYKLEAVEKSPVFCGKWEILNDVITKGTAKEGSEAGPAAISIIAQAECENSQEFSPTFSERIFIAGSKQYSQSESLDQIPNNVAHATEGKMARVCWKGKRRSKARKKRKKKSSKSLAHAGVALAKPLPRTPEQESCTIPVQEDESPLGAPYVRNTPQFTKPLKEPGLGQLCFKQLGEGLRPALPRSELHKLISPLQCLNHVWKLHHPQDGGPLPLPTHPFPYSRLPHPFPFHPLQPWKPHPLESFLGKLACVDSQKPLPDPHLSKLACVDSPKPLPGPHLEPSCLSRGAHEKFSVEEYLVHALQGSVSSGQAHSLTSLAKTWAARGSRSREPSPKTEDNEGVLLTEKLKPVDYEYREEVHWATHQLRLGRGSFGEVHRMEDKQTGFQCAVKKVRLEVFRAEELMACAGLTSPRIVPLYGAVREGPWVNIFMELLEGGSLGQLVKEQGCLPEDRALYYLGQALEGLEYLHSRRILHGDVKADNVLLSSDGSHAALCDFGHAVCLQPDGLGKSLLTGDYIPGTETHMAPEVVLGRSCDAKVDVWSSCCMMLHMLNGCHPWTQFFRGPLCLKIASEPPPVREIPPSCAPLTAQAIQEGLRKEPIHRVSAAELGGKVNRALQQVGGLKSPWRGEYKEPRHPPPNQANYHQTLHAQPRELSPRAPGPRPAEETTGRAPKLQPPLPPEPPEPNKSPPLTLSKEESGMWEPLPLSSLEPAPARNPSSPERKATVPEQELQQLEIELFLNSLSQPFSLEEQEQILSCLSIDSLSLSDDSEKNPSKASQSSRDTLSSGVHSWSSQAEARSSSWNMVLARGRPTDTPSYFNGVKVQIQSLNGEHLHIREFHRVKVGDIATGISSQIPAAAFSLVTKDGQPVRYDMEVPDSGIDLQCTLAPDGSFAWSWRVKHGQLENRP

Structure (SMILES)	IC50 [1, 3] [nM]	IC50 [2, 4] [nM]	IC50 ([1]; L-363, 6 h) [nM]	IC50 [2] [nM]
CNc1sc(-c2cccc(-c3cc([C@]4(O)CCN(C)C4=O)on3)c2)nc1C(N)=O [Example 209, (R)-2-(3-(5-(3-Hydroxy-1-methyl-2-oxopyrrolidin-3-yl)isoxazol-3-yl)phenyl)-5-(methylamino)thiazole-4-carboxamide]	< 100	< 100		
CN1CC[C@@](O)(c2cc(-c3cccc(-c4nc(C(N)=O)c(NC5COC5)s4)c3)no2)C1=O [Example 210, (R)-2-(3-(5-(3-Hydroxy-1-methyl-2-oxopyrrolidin-3-yl)isoxazol-3-yl)phenyl)-5-(oxetan-3-ylamino)thiazole-4-carboxamide]	< 100	< 100		
CN1CC[C@@](O)(c2cc(-c3cccc(-c4nc(C(N)=O)c(Nc5cnn(C)c5)s4)c3)no2)C1=O [Example 211, (R)-2-(3-(5-(3-Hydroxy-1-methyl-2-oxopyrrolidin-3-yl)isoxazol-3-yl)phenyl)-5-((1-methyl-1H-pyrazol-4-yl)amino)thiazole-4-carboxamide]	< 100	< 100		
CN1CC[C@@](O)(c2cc(-c3cccc(-c4ncc(C(N)=O)s4)c3)no2)C1=O [Example 212, (R)-2-(3-(5-(3-hydroxy-1-methyl-2-oxopyrrolidin-3-yl)isoxazol-3-yl)phenyl)thiazole-5-carboxamide]	> 501	> 501		
COc1ncccc1Nc1sc(-c2cccc(-c3cc([C@]4(O)CCN(C)C4=O)on3)c2)nc1C(N)=O [Example 213, (R)-2-(3-(5-(3-Hydroxy-1-methyl-2-oxopyrrolidin-3-yl)isoxazol-3-yl)phenyl)-5-((2-methoxypyridin-3-yl)amino)thiazole-4-carboxamide]	< 100	< 100		
CN1CC[C@@](O)(c2cc(-c3cccc(-c4nc(C(N)=O)c(Br)s4)c3)no2)C1=O [Example 215, (R)-5-Bromo-2-(3-(5-(3-hydroxy-1-methyl-2-oxopyrrolidin-3-yl)isoxazol-3-yl)phenyl)thiazole-4-carboxamide]	> 501	< 100		
CC(=O)N1CC(Nc2sc(-c3cccc(-c4cc([C@]5(O)CCN(C)C5=O)on4)c3)nc2C(N)=O)C1 [Example 216, (R)-5-((1-Acetylazetidin-3-yl)amino)-2-(3-(5-(3-hydroxy-1-methyl-2-oxopyrrolidin-3-yl)isoxazol-3-yl)phenyl)thiazole-4-carboxamide]	> 501	< 100		
Cc1sc(-c2cccc(-c3cc([C@]4(O)CCN(C)C4=O)on3)c2)nc1C(N)=O [Example 217, (R)-2-(3-(5-(3-Hydroxy-1-methyl-2-oxopyrrolidin-3-yl)isoxazol-3-yl)phenyl)-5-methylthiazole-4-carboxamide]	100 to 500	< 100		
CCc1sc(-c2cccc(-c3cc([C@]4(O)CCN(C)C4=O)on3)c2)nc1C(N)=O [Example 218, (R)-5-Ethyl-2-(3-(5-(3-hydroxy-1-methyl-2-oxopyrrolidin-3-yl)isoxazol-3-yl)phenyl)thiazole-4-carboxamide]	100 to 500	< 100		
CC(C)c1sc(-c2cccc(-c3cc([C@]4(O)CCN(C)C4=O)on3)c2)nc1C(N)=O [Example 219, (R)-2-(3-(5-(3-Hydroxy-1-methyl-2-oxopyrrolidin-3-yl)isoxazol-3-yl)phenyl)-5-isopropylthiazole-4-carboxamide]	> 501	< 100		
CC(C)Cc1sc(-c2cccc(-c3cc([C@]4(O)CCN(C)C4=O)on3)c2)nc1C(N)=O [Example 220, (R)-2-(3-(5-(3-Hydroxy-1-methyl-2-oxopyrrolidin-3-yl)isoxazol-3-yl)phenyl)-5-isobutylthiazole-4-carboxamide]			> 501	< 100
CN1CC[C@@](O)(c2cc(-c3cccc(-c4nc(C(N)=O)c(C5CCC5)s4)c3)no2)C1=O [Example 221, (R)-5-Cyclobutyl-2-(3-(5-(3-hydroxy-1-methyl-2-oxopyrrolidin-3-yl)isoxazol-3-yl)phenyl)thiazole-4-carboxamide]	> 501	< 100		
CN1CC[C@@](O)(c2cc(-c3cccc(-c4nc(C(N)=O)c(C(F)F)s4)c3)no2)C1=O [Example 222, (R)-5-(Difluoromethyl)-2-(3-(5-(3-hydroxy-1-methyl-2-oxopyrrolidin-3-yl)isoxazol-3-yl)phenyl)thiazole-4-carboxamide]	100 to 500	< 100		
CN1CC[C@@](O)(c2cc(-c3cccc(-c4nc(C(N)=O)c(CNC5CCCC5)s4)c3)no2)C1=O [Example 223, (R)-5-((Cyclopentylamino)methyl)-2-(3-(5-(3-hydroxy-1-methyl-2-oxopyrrolidin-3-yl)isoxazol-3-yl)phenyl)thiazole-4-carboxamide]	> 501	< 100		
COc1cc(-c2cccc(-c3cc([C@]4(O)CCN(C)C4=O)on3)c2)nc2[nH]ncc12 [Example 224, (R)-3-Hydroxy-3-(3-(3-(4-methoxy-1H-pyrazolo[3,4-b]pyridin-6-yl)phenyl)isoxazol-5-yl)-1-methylpyrrolidin-2-one]	> 501	100 to 500		
CN1CC[C@@](O)(c2cc(-c3cccc(-c4cc(C(F)(F)F)c5cn[nH]c5n4)c3)no2)C1=O [Example 225, (R)-3-Hydroxy-1-methyl-3-(3-(3-(4-(trifluoromethyl)-1H-pyrazolo[3,4-b]pyridin-6-yl)phenyl)isoxazol-5-yl)pyrrolidin-2-one]	> 501	100 to 500		
CN1CC[C@@](O)(c2cc(-c3cccc(-c4ncc5cn[nH]c5n4)c3)no2)C1=O [Example 226, (R)-3-(3-(3-(1H-Pyrazolo[3,4-d]pyrimidin-6-yl)phenyl)isoxazol-5-yl)-3-hydroxy-1-methylpyrrolidin-2-one]	> 501	> 501		
CN1CC[C@@](O)(c2cc(-c3cccc(-c4ncc5cnn(C)c5n4)c3)no2)C1=O [Example 227, (R)-3-Hydroxy-1-methyl-3-(3-(3-(1-methyl-1H-pyrazolo[3,4-d]pyrimidin-6-yl)phenyl)isoxazol-5-yl)pyrrolidin-2-one]	> 501	100 to 500		
CN1CC[C@@](O)(c2cc(-c3cccc(-c4ccc5[nH]ncc5n4)c3)no2)C1=O [Example 228, (R)-3-(3-(3-(1H-Pyrazolo[4,3-b]pyridin-5-yl)phenyl)isoxazol-5-yl)-3-hydroxy-1-methylpyrrolidin-2-one]	> 501	100 to 500		
CN1CC[C@@](O)(c2cc(-c3cccc(-c4ccc5c(cnn5C)n4)c3)no2)C1=O [Example 229, (R)-3-Hydroxy-1-methyl-3-(3-(3-(1-methyl-1H-pyrazolo[4,3-b]pyridin-5-yl)phenyl)isoxazol-5-yl)pyrrolidin-2-one]	> 501	> 501		
COc1cc(-c2cccc(-c3cc([C@]4(O)CCN(C)C4=O)on3)c2)nc2c1c(C)nn2C [Example 230, (R)-3-Hydroxy-3-(3-(3-(4-methoxy-1,3-dimethyl-1H-pyrazolo[3,4-b]pyridin-6-yl)phenyl)isoxazol-5-yl)-1-methylpyrrolidin-2-one]	> 501	100 to 500		
CN1CC[C@@](O)(c2cc(-c3cccc(-c4nc(C(N)=O)c(CN5CCCC5)s4)c3)no2)C1=O [Example 231, (R)-2-(3-(5-(3-Hydroxy-1-methyl-2-oxopyrrolidin-3-yl)isoxazol-3-yl)phenyl)-5-(pyrrolidin-1-ylmethyl)thiazole-4-carboxamide]	> 501	< 100		
CN1CC[C@@](O)(c2cc(-c3cccc(-c4nc(C(N)=O)c5n4CCN(CCC(F)(F)F)C5)c3)no2)C1=O [Example 232, (R)-3-(3-(5-(3-Hydroxy-1-methyl-2-oxopyrrolidin-3-yl)isoxazol-3-yl)phenyl)-7-(3,3,3-trifluoropropyl)-5,6,7,8-tetrahydroimidazo[1,5-a]pyrazine-1-carboxamide]	> 501	> 501		
CC(C)N1CCn2c(-c3cccc(-c4cc([C@]5(O)CCN(C)C5=O)on4)c3)nc(C(N)=O)c2C1 [Example 233, (R)-3-(3-(5-(3-Hydroxy-1-methyl-2-oxopyrrolidin-3-yl)isoxazol-3-yl)phenyl)-7-isopropyl-5,6,7,8-tetrahydroimidazo[1,5-a]pyrazine-1-carboxamide]	> 501	> 501		
CN1CC[C@@](O)(c2cc(-c3cccc(-c4nc(C(N)=O)c5n4CCN(Cc4ccccc4)C5)c3)no2)C1=O [Example 234, (R)-7-Benzyl-3-(3-(5-(3-hydroxy-1-methyl-2-oxopyrrolidin-3-yl)isoxazol-3-yl)phenyl)-5,6,7,8-tetrahydroimidazo[1,5-a]pyrazine-1-carboxamide]	> 501	> 501		
Cc1ncc(C#N)cc1Nc1sc(-c2cccc(-c3cc([C@]4(O)CCN(C)C4=O)on3)c2)nc1C(N)=O [Example 235, (R)-5-((5-Cyano-2-methylpyridin-3-yl)amino)-2-(3-(5-(3-hydroxy-1-methyl-2-oxopyrrolidin-3-yl)isoxazol-3-yl)phenyl)thiazole-4-carboxamide]	< 100	< 100		
CN1CC[C@@](O)(c2cc(-c3cccc(-c4nc(C(N)=O)c(Nc5ccn(C)n5)s4)c3)no2)C1=O [Example 236, (R)-2-(3-(5-(3-Hydroxy-1-methyl-2-oxopyrrolidin-3-yl)isoxazol-3-yl)phenyl)-5-((1-methyl-1H-pyrazol-3-yl)amino)thiazole-4-carboxamide]	< 100	< 100		
